Results as given in ChEMBL document CHEMBL1201862, “PubChem BioAssay data set” (2004).
Activity calls are given as the source filed them.

Key:
[1] = biological target: T1, Calpain-2 catalytic subunit (Sus scrofa, UniProt P43367); assay: m-calpain protease blockers, concentration series – biochemical, fluorogenic peptide substrate, dose response (AID 1420); assay type: functional
T1 sequence (P43367 whole entry): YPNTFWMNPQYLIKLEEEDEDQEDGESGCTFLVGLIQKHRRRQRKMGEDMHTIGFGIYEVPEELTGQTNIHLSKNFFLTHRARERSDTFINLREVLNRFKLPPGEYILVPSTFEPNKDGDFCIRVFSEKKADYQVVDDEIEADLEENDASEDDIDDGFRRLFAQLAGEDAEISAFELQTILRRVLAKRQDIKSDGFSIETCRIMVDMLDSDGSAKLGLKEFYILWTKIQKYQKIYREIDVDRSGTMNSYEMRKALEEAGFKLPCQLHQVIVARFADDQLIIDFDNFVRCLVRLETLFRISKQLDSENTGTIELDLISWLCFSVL

Cytochrome P450 1A2 = biological target: T2, Cytochrome P450 1A2 (Homo sapiens, UniProt P05177);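 further: PubChem cytochrome P450 panel assay, CYP1A2 panel member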
T2 sequence (P05177 whole entry): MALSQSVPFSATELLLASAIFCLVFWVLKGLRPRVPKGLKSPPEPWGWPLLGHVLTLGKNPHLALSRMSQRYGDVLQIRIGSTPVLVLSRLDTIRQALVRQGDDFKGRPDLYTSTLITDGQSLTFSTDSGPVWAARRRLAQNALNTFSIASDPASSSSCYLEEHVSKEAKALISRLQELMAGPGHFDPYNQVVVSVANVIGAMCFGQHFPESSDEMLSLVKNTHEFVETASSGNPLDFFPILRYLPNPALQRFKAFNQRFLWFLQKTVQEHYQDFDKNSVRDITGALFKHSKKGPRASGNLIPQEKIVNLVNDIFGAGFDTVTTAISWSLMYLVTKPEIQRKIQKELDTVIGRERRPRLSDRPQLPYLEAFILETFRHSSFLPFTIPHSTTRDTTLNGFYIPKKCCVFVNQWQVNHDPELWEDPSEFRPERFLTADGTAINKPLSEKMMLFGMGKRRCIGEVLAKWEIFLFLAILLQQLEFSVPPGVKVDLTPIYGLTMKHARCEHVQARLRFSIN

Cytochrome P450 3A4 = Cytochrome P450 3A4 (Homo sapiens, UniProt P08684);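 further: CYP3A4 tested as one member of a cytochrome P450 panel screen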
[2] = viability of uninfected HEp-2 cells – cell-based, HTS, cytotoxicity control for RSV inhibitor project, dose response (AID 2410); assay type: functional; details: human respiratory syncytial virus
Cytochrome P450 2D6 = Cytochrome P450 2D6 (Homo sapiens, UniProt P10635);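 further: CYP2D6 member of a cytochrome P450 panel assay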
SN12K1 = assay: cells; assay type: functional; details: Homo sapiens
P388 = assay: cells; assay type: functional; details: Mus musculus
P388/ADR = assay: cells; assay type: functional; details: Mus musculus
[3] = biological target: T3, High affinity choline transporter 1 (Homo sapiens, UniProt Q9GZV3); assay: human choline transporter blockers, potency – cell-based, 5-point CRC, membrane potential dye, dose response (AID 504840); assay type: functional
T3 sequence (Q9GZV3 whole entry): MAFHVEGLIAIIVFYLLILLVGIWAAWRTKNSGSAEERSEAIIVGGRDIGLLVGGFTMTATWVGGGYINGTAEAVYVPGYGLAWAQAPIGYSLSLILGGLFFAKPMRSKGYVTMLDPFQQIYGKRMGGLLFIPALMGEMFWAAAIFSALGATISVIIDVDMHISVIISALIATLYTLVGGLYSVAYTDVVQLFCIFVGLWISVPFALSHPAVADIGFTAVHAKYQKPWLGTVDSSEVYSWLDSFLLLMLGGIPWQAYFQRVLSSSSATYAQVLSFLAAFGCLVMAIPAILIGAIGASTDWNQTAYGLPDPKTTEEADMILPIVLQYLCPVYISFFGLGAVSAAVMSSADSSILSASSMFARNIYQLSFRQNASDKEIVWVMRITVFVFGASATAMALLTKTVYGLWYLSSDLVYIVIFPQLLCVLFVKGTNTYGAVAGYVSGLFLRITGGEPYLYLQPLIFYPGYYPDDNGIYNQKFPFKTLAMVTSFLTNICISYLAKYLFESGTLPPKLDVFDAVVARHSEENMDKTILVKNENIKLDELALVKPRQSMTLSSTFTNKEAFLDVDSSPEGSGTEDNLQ

[4] = DRD fibroblast viability loss – cell-based, non-viral oncogenic, luminescence, dose response (AID 1934); assay type: functional; details: Homo sapiens
BJ [5] = assay: cells; assay type: functional, cell-based; details: Homo sapiens
[6] = HEK-293T viability loss after treatment – luminescence, T-cell screen hits, cytotoxicity control for TCR NF-kB inhibitor project, dose response (AID 489026); assay type: functional, cell-based;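 further: cells exposed to compound about 14 hours before the viability readout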
BJ [7] = assay: BJ-TERT fibroblast viability loss – cell-based, RAS-independent, luminescence, dose response (AID 1933); assay type: functional; details: Homo sapiens
BJ [8] = assay: BJ-TERT-LT-ST fibroblast viability loss – cell-based, RAS-independent, luminescence, dose response (AID 1935); assay type: functional; details: Homo sapiens;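 further: BJ fibroblasts immortalized with TERT plus LT and ST oncogenes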
cells [9] = assay type: functional
[10] = biological target: Glyceraldehyde-3-phosphate dehydrogenase (Homo sapiens, UniProt P04406)
cells [11] = assay type: functional, cell-based
[12] = biological target: T4, Nuclear receptor subfamily 0 group B member 1 (Homo sapiens, UniProt P51843); assay type: functional, cell-based;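 further: HEK293T cells transfected with SF-1 and DAX-1 plus StAR promoter luciferase reporter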
T4 sequence (P51843 whole entry): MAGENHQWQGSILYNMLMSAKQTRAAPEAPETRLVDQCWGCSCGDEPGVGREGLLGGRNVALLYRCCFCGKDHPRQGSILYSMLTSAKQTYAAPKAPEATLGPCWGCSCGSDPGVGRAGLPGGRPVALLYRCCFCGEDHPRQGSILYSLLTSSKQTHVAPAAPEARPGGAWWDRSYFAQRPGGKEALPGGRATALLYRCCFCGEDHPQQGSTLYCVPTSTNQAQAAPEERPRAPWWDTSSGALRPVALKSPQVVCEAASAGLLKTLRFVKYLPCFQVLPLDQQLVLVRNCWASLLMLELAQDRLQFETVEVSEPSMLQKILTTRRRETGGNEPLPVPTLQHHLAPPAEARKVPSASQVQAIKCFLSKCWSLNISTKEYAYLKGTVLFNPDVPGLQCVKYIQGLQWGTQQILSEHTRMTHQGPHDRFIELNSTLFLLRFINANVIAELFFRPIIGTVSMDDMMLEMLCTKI

Cytochrome P450 2C19 = Cytochrome P450 2C19 (Homo sapiens, UniProt P33261); assay: Cytochrome panel assay with activity outcomes. Panel member name: p450-cyp2c19 Compounds with AC50 equal or less than 10 uM are considered active; assay type: functional; details: read-out: AC50
Chain of Cytochrome P450 2C19 (P33261 whole entry): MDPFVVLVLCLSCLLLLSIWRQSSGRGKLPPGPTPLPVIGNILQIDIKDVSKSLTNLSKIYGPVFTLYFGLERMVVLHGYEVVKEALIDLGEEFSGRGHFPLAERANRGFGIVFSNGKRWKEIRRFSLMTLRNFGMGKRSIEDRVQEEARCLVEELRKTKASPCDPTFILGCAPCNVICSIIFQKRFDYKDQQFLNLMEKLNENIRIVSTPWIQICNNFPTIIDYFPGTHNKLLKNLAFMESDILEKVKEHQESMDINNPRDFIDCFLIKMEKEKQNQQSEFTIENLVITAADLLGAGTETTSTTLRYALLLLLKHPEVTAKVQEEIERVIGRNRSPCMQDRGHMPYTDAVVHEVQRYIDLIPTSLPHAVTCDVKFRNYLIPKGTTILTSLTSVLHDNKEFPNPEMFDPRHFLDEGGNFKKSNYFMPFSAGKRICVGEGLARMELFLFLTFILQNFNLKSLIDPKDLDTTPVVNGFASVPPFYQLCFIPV

Chain of Cytochrome P450 2D6 (P10635 whole entry): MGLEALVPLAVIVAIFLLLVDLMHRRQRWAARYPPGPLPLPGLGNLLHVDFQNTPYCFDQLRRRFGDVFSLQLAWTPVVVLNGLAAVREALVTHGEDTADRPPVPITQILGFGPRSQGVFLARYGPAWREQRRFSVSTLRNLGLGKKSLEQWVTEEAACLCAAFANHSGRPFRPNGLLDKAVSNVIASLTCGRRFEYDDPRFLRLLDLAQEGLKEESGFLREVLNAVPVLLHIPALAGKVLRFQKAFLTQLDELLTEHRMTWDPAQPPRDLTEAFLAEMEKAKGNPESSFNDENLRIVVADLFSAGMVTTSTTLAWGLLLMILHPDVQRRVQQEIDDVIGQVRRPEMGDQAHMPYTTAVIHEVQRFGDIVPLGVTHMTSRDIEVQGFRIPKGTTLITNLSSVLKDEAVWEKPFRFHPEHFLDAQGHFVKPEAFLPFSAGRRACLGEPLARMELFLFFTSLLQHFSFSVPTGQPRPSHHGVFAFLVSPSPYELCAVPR
Chain of Cytochrome P450 3A4 (P08684 whole entry): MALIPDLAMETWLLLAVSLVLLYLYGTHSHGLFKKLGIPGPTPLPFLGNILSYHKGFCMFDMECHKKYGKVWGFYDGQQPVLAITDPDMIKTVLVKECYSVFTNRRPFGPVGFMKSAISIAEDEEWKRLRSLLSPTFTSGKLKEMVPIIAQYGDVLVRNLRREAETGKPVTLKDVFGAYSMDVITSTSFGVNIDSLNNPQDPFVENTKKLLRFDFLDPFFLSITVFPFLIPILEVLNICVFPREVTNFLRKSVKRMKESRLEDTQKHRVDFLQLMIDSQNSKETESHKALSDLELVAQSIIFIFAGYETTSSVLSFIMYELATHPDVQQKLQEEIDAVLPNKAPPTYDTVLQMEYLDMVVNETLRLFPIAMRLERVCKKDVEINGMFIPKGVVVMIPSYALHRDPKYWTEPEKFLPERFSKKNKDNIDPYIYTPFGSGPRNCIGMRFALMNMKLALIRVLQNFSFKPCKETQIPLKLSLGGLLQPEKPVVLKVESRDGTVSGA
Chain of Glyceraldehyde-3-phosphate dehydrogenase (P04406 whole entry): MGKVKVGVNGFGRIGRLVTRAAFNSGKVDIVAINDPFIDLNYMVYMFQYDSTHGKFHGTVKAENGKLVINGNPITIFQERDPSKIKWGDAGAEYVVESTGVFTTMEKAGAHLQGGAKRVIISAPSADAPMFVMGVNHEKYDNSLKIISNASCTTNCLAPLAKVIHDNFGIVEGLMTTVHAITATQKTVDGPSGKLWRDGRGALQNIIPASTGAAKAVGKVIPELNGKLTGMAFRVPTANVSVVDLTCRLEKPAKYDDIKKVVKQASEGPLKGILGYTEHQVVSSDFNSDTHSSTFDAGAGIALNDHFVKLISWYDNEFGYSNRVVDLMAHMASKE

**Q.** For `CCOc1ccc(NC(=NCc2ccc3c(c2)OCO3)SC2CC(=O)N(c3ccc(OCC)cc3)C2=O)cc1` (stereo not given), which IC50 [1] is on record?
**A.** Its IC50 is > 50 µM (not active).

**Q.** With `Oc1ccc(Br)cc1/C=N/c1ccc(Cl)cc1` as the compound, how does the IC50 [1] read?
**A.** Its IC50 is 43.8 µM (not active).

**Q.** What does the source list for `O=C(c1ccc2c(c1)OCCO2)C1CCN(S(=O)(=O)c2ccccc2F)CC1`?
**A.** AC50 (Cytochrome P450 1A2): 5.01 µM (inconclusive); AC50 (Cytochrome P450 3A4): inconclusive; CC50 [2]: > 50 µM (active); AC50 (Cytochrome P450 2D6): 0.0316 µM (inconclusive)

**Q.** What does the source list for `Cc1c2c(cc3c1[nH]c1ccccc13)C=NCC2`?
**A.** GI50 (SN12K1): 6.98 µM (inactive); GI50 (P388): 6.93 µM (inactive); GI50 (P388/ADR): 8 µM (inactive)

**Q.** Which IC50 [1] does the source give for `Cc1nc2ccccc2[nH]c(=O)c1=NNc1ccc([N+](=O)[O-])cc1` here?
**A.** The IC50 was 12.3 µM (not active).

**Q.** With `Cn1c(-c2ccccc2O)cc2ccccc21` as the compound, how does the IC50 [3] read?
**A.** The IC50 was 13.2 µM (active).

**Q.** For `FC(F)(F)c1ccccc1-c1cc(NCc2ccccc2)ncn1`, which AC50 (Cytochrome P450 3A4) is on record?
**A.** The AC50 was “inconclusive”.

**Q.** And the AC50 (Cytochrome P450 2D6)?
**A.** The AC50 was 39.8 µM (inconclusive).

**Q.** For `C=C(OC1C(C)=C2C(C1OC(=O)CCCCCCC)C(C)(OC(C)=O)CC(OC(=O)CCC)C1(O)C2OC(=O)C1(C)O)/C(C)=C/C` (stereo not given), which GI50 (SN12K1) is on record?
**A.** Its GI50 is 0.0125 µM (active).

**Q.** And the GI50 (P388)?
**A.** Its GI50 is 0.0125 µM (active).

**Q.** What about the GI50 (P388/ADR) of the same compound?
**A.** Its GI50 is 0.0251 µM (active).

**Q.** With `Nc1ccn([C@@H]2C=C(CO)[C@@H](O)[C@H]2O)c(=O)n1` as the compound, how does the GI50 (SN12K1) read?
**A.** The GI50 was 0.104 µM (active).

**Q.** What about the GI50 (P388) of the same compound?
**A.** The GI50 was 0.0752 µM (active).

**Q.** What about the GI50 (P388/ADR) of the same compound?
**A.** Its GI50 is 0.0619 µM (active).

**Q.** What does the source list for `CC(=O)NC1=C[C@@H]([C@H]2COC(C)(C)O2)OC1=O`?
**A.** GI50 (SN12K1): > 100 µM (inactive); GI50 (P388): > 100 µM (inactive); GI50 (P388/ADR): > 100 µM (inactive)

**Q.** Which results are given for `Cc1ccc2c(c1)C=CC(C#N)N2C(=O)c1ccccc1` (stereo not given)?
**A.** EC50 [4]: 1.54 µM (active); EC50 (BJ [5]): > 150 µM (not active); IC50 [6]: > 80 µM (inactive); EC50 (BJ [7]): 3.69 µM (active); EC50 (BJ [8]): 25.5 µM (inconclusive)

**Q.** Which IC50 (cells [9]) does the source give for `Cc1ccc(-c2nnc(C)c(N3CCCC3)n2)cc1` here?
**A.** The IC50 was 13.2 µM (active).

**Q.** With `CN(C)C1=C(Cl)C(=O)N(c2ccc(Cl)nc2)C1=O` as the compound, how does the IC50 [10] read?
**A.** Its IC50 is > 50 µM (inconclusive).

**Q.** Which results are given for `CCCCOc1ccc(OCCCCCCCCCC[N+](C)(C)C)cc1`?
**A.** GI50 (SN12K1): 1.61 µM (inactive); GI50 (P388): 0.94 µM (active); GI50 (P388/ADR): 7.05 µM (inactive)

**Q.** With `Nc1[nH]cnc2ncnc1-2` [ADENINE] as the compound, how does the GI50 (SN12K1) read?
**A.** The GI50 was 213 µM (inactive).

**Q.** And the GI50 (P388)?
**A.** The GI50 was 64.9 µM (inactive).

**Q.** What about the GI50 (P388/ADR) of the same compound?
**A.** The GI50 was 79.3 µM (inactive).

**Q.** For `Cc1cc(NC(=O)NC(=O)c2ccccc2F)no1`, which IC50 (cells [11]) is on record?
**A.** Its IC50 is > 67.5 µM (inactive).

**Q.** What about the IC50 [12] of the same compound?
**A.** Its IC50 is > 67.5 µM (inactive).

**Q.** For `CN1CCCC(CC2Oc3ccccc3Sc3ccccc32)C1` (stereo not given), which IC50 [3] is on record?
**A.** Its IC50 is 15.8 µM (active).

**Q.** With `CN1CCN(C(=O)c2ccc3c(Cl)c4c(nc3c2)CCCC4)CC1` as the compound, how does the IC50 (cells [11]) read?
**A.** Its IC50 is > 67.6 µM (inactive).

**Q.** And the IC50 [12]?
**A.** Its IC50 is > 67.6 µM (inactive).

**Q.** For `CSc1nc(NC2OCC(O)C(O)C2O)c(N)c(=O)[nH]1` (stereo not given), which GI50 (SN12K1) is on record?
**A.** Its GI50 is > 100 µM (inactive).

**Q.** And the GI50 (P388)?
**A.** The GI50 was > 100 µM (inactive).

**Q.** What about the GI50 (P388/ADR) of the same compound?
**A.** The GI50 was > 100 µM (inactive).

**Q.** For `O=C1C(Cl)=C(N2CCN(c3ccccc3)CC2)C(=O)N1c1ccc(Cl)nc1`, which IC50 [10] is on record?
**A.** The IC50 was > 50 µM (inconclusive).

**Q.** Which AC50 (Cytochrome P450 1A2) does the source give for `O=C(c1cccc(F)c1)N1CCC2(CC1)CCN(c1ncccn1)CC2` here?
**A.** The AC50 was 10 µM (inconclusive).

**Q.** What about the AC50 (Cytochrome P450 3A4) of the same compound?
**A.** The AC50 was “inconclusive”.

**Q.** What about the AC50 (Cytochrome P450 2C19) of the same compound?
**A.** The AC50 was 39.8 µM (inconclusive).

**Q.** And the AC50 (Cytochrome P450 2D6)?
**A.** Its AC50 is 15.8 µM (inconclusive).

**Q.** With `CCCc1cc2c(=O)c(-c3ccccn3)c(C)oc2cc1O` as the compound, how does the IC50 [3] read?
**A.** Its IC50 is 12.3 µM (active).

**Q.** With `COc1cc(OC)c2c(-c3cccc(-c4ccc(NC(C)=O)cc4)c3)cc(=O)oc2c1` as the compound, how does the IC50 (cells [11]) read?
**A.** Its IC50 is > 67.5 µM (inactive).

**Q.** What about the IC50 [12] of the same compound?
**A.** The IC50 was > 67.5 µM (inactive).

**Q.** For `N=C(N)Nc1ncccc1[N+](=O)[O-]`, which GI50 (SN12K1) is on record?
**A.** The GI50 was > 100 µM (inactive).

**Q.** What about the GI50 (P388) of the same compound?
**A.** The GI50 was 40.2 µM (inactive).

**Q.** What about the GI50 (P388/ADR) of the same compound?
**A.** Its GI50 is 32.9 µM (inactive).

**Q.** Which IC50 [1] does the source give for `CC(C)Cn1c(-c2ccc(Br)cc2)cnc1S` here?
**A.** The IC50 was 12.1 µM (active).
